Results taken from US20260007601A1, “IONIZABLE CATIONIC LIPID COMPOUND AND COMPOSITION FOR DELIVERING NUCLEIC ACID AND USE THEREOF” (BEIJING YOUCAREKECHUANG PHARMACEUTICAL TECHNOLOGY CO., LTD., priority 2023, published 2026).
Several values for one entry are separate records, joined by “and”; a condition that tells them apart may be missing. Equal values may be shown once.

Tests used:
[1] = Particle size and polydispersity index (PDI) of nanolipid particles, dynamic light scattering; type: physicochemical; details: LNP formulation prepared from the named cationic lipid, 25° C
Method: The particle size and polydispersity index (PDI) were determined by dynamic light scattering method using a Malvern laser particle size analyzer. 10 μL of liposome solution was diluted to 1 mL with RNase-free deionized water and added to a sample pool. Each sample was measured three times. The measurement conditions were: 90° scattering angle, 25° C.

[2] = Encapsulation rate, drug loading concentration and total RNA concentration detection (RiboGreen); type: physicochemical
[3] = test system: 293T cells; assay: Cell survival rate assay (CCK-8); type: cell-based
How it was run: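 293T cells seeded at 10,000 per well and grown overnight, then exposed for 24 h to LNPs (cationic/neutral/structured/PEG lipids 49:10:39.5:1.5) carrying 1.5 μg Fluc-mRNA, or Lipofectamine 3000. Viability read by CCK-8, 1 h incubation, absorbance at 450 nm.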

[4] = test system: female BALB/C mice; assay: Mouse in vivo imaging of Fluc-mRNA LNP formulations; parameters: average radiation intensity (mRNA expression): unit not given here; details: for average radiation intensity (mRNA expression): 10 μg Fluc-mRNA LNP intramuscularly
How it was run: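 Female BALB/C mice (4–6 weeks, 17–19 g) received LNP carrying 10 μg Fluc-mRNA intramuscularly. Imaging substrate given intraperitoneally at 6 h, 24 h, 48 h and 7 d; after 5 min free movement, average radiance read by IVIS Spectrum imaging.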

[5] = LNP formulation of the named lipid

## CCCCCCCCCCCOC(=O)CCCCCN(CCCCCCCC(=O)OC(CCCCCCCC)CCCCCCCC)CCN(C)CCO [YK-201, heptadecan-9-yl-8-(2-((2-hydroxyethyl)(methylamino))ethyl)(6-oxo-6-((undecanyloxy)hexyl)amino)octanoate]
[1]
  PDI: 25.5%
  Particle size: 205 nm
[2]
  drug loading concentration, times that of ALC-0315: 1.55 times
  drug loading concentration, times that of HHMA: 1.32 times
  drug loading concentration, times that of SM-102: 1.58 times
  drug loading concentration, times that of YK-009: 1.50 times
  drug loading concentration, times that of compound 21: 1.78 times
  drug loading concentration, times that of compound 23: 1.95 times
  total RNA concentration, times that of ALC-0315: 1.21 times
  total RNA concentration, times that of HHMA: 1.19 times
  total RNA concentration, times that of SM-102: 1.28 times
  total RNA concentration, times that of YK-009: 1.17 times
  total RNA concentration, times that of compound 21: 1.47 times and 1.5 times
  total RNA concentration, times that of compound 23: 1.39 times
[2]; [5]
  Drug loading concentration: 40.32 µg/mL
  Encapsulation rate: 89.5%
  Total RNA concentration: 45.07 µg/mL
[2]; difference of rates
  encapsulation rate higher than that of ALC-0315: 26.70%
  encapsulation rate higher than that of HHMA: 29.00%
  encapsulation rate higher than that of SM-102: 27.20%
  encapsulation rate higher than that of YK-009: 26.50%
  encapsulation rate higher than that of compound 21: 31.70%
  encapsulation rate higher than that of compound 23: 34.30%
[3]; LNP containing 1.5 μg Fluc-mRNA, 24 hours, CCK-8
  Cell survival rate: 75.93%
[3]; difference of rates
  cell survival rate higher (cytotoxicity reduced) compared with YK-221: 55% and 54.98%
  cell survival rate higher (toxicity lower) than that of YK-204: 30% and 33.36%
  cell survival rate higher (toxicity lower) than that of YK-225: 32.52%
  cell survival rate higher than that of ALC-0315: 25.97%
  cell survival rate higher than that of HHMA: 10.37%
  cell survival rate higher than that of Lipofectamine 3000: 52.88%
  cell survival rate higher than that of SM-102: 7.38%
  cell survival rate higher than that of YK-203: 40.37%
  cell survival rate higher than that of YK-205: 17.01%
  cell survival rate higher than that of YK-208: 29.25%
  cell survival rate higher than that of YK-210: 37.55%
  cell survival rate higher than that of YK-211: 23.63%
  cell survival rate higher than that of YK-212: 40.67%
  cell survival rate higher than that of YK-213: 34.49%
  cell survival rate higher than that of YK-214: 50.35% and 50%
  cell survival rate higher than that of YK-215: 31.34%
  cell survival rate higher than that of YK-216: 30.13%
  cell survival rate higher than that of YK-217: 33.66%
  cell survival rate higher than that of YK-219: 17.32%
  cell survival rate higher than that of YK-220: 16.94%
  cell survival rate higher than that of YK-222: 42.18%
  cell survival rate higher than that of YK-223: 39.29%
  cell survival rate higher than that of YK-224: 52.46%
  cell survival rate higher than that of YK-226: 48.03%
  cell survival rate higher than that of compound 21: 6.91%
  cell survival rate higher than that of compound 23: 5.83%
[4]; 6 h
  average radiation intensity, times that of ALC-0315: 3.39 times
  average radiation intensity, times that of HHMA: 4.47 times
  average radiation intensity, times that of SM-102: 4.21 times
  average radiation intensity, times that of compound 21: 4.76 times
  average radiation intensity, times that of compound 23: 4.81 times
  mRNA expression level, times that of YK-204: 81.10 times
  mRNA expression level, times that of YK-223: 276.05 times
  average radiation intensity (mRNA expression): 2858500
[4]; 6 hours
  expression level, times that of YK-215: 56.53 times
  expression level, times that of YK-217: 116.27 times
[4]; 24 h
  average radiation intensity, times that of ALC-0315: 11.11 times
  average radiation intensity, times that of HHMA: 18.47 times
  average radiation intensity, times that of SM-102: 17.49 times
  average radiation intensity, times that of compound 21: 18.76 times
  average radiation intensity, times that of compound 23: 18.27 times
  mRNA expression level, times that of YK-204: 387.32 times
  mRNA expression level, times that of YK-223: 1134.20 times
  average radiation intensity (mRNA expression): 2025680
[4]; 24 hours
  expression level, times that of YK-215: 297.24 times
  expression level, times that of YK-217: 764.41 times
[4]; 48 h
  average radiation intensity, times that of ALC-0315: 19.16 times
  average radiation intensity, times that of HHMA: 24.82 times
  average radiation intensity, times that of SM-102: 23.91 times
  average radiation intensity, times that of compound 21: 24.34 times
  average radiation intensity, times that of compound 23: 22.78 times
  mRNA expression level, times that of YK-204: 299.49 times
  mRNA expression level, times that of YK-223: 1077.82 times
  average radiation intensity (mRNA expression): 730760
[4]; 48 hours
  expression level, times that of YK-215: 200.76 times
  expression level, times that of YK-217: 713.63 times
[4]; 7 d
  average radiation intensity, times that of ALC-0315: 4.58 times
  average radiation intensity, times that of HHMA: 5.68 times
  average radiation intensity, times that of SM-102: 5.11 times
  average radiation intensity, times that of compound 21: 4.94 times
  average radiation intensity, times that of compound 23: 5.17 times
  expression level, times that of YK-215: 29.56 times
  expression level, times that of YK-217: 57.65 times
  mRNA expression level, times that of YK-204: 39.99 times
  mRNA expression level, times that of YK-223: 68.53 times
  average radiation intensity (mRNA expression): 30151
[4]; time point not stated
  mRNA expression in mice can reach, times that of YK-204: 380 times
